In patent US6492578B1, “Expression of herbicide tolerance genes in plant plastids” (Calgene LLC, priority 1998, dated 2002):
Like-named read-outs stand apart in the source and are kept apart here.

Experiments:
[1] = test system: 5177 transformed tobacco lines and control lines; test: Norflurazon resistance analysis (watering with Norflurazon solution); type: in vivo; details: 3 μM Norflurazon solution
Method: An experiment was set up to determine the efficacy of the Crt I trait with respect to resistance to the herbicide Norflurazon. Three 5177 transformed lines, 74-1B-P, 74-2-A, and 74-7-C and three control lines were planted. Plants were grown for seven weeks and then watered with a 3 μM Norflurazon solution. Plants negative for the presence of the crtI plastid-borne gene were bleached by Norflurazon treatment, positive plants stayed green and continued to grow.

[2] = test system: transplastomic (and nuclear pMON10154) tobacco lines expressing EPSPS; test: Glyphosate spray tolerance of other lines expressing EPSPS; type: in vivo
Method: (§1) Homoplasmic tobacco plants of the line 38773-6 are sprayed with glyphosate using a track sprayer at concentrations corresponding to 0 oz/acre, 16 oz/acre, 32 oz/acre and 64 oz/acre to test for whole plant tolerance. Plant height was measured before and after s praying with glyphosate. The vegetative injury data was collected two weeks after spraying, while the reproductive injury data was collected at plant maturity.
(§2) In addition, other transplastomic lines were analyzed for tolerance to spraying with various levels of glyphosate as described above. Specific activity is measured as the amount of exogenously added Phosphoenol pyruvate (PEP) converted to […] per unit protein in the plant extract. Addition of glyphosate tests sensitivity of the EPSPS enzyme to glyphosate.

[3] = test system: homoplasmic tobacco line 38773-6; test: In vitro glyphosate tolerance: shoot regeneration from leaf explants on TSO medium with glyphosate; type: cell-based, Nicotiana tabacum cv. Havana
Method: (§3) A transplastomic tobacco line homoplasmic for the construct pMON38773 was tested in vitro to determine the highest level of glyphosate tolerance. Explant tissue was prepared from leaf pieces of nontransgenic wild type tobacco control, Havanna, plants and the homoplasmic tobacco line 38773-6 and cultured for regeneration of shoots on TSO medium (described above) supplemented with glyphosate levels of 50 μM, 75 μM, 100 μM, 150 μM and 200 μM. The number of explants producing shoots was determined at 3 weeks and 6 weeks after explant preparation and culturing on glyphosate containing medium.

[4] = test system: nontransgenic wild type tobacco control, Havanna; test: as above; type: cell-based, Nicotiana tabacum cv. Havana; details: for Number Regenerating 3 Weeks / Number Regenerating 6 Weeks: 10 explants
Method: as §3

[5] = test system: transplastomic tobacco lines containing EPSPS genes; test: In vitro glyphosate selection of shoots from plastid transformation with EPSPS constructs; type: cell-based
Method: as §3
Additional transplastomic lines were tested in vitro for glyphosate tolerance as bed above.
The numbers in parentheses are the number of shoots resistant to selection at 1 mM glyphosate.

[6] = test system: Homoplasmic tobacco plants of the line 38773-6; test: Whole plant glyphosate spray test (track sprayer); type: in vivo
Method: as §1
(§4) Tolerance is characterized by the continued growth and greening of tissues sprayed with glyphosate. However, as the concentration of glyphosate applied increased, there was a corresponding increase in the level of vegetative injury.

[7] = test system: Wild type tobacco (nontransformed control plants); test: Whole plant glyphosate spray test (track sprayer); type: in vivo
Method: as §1, §4

EPSPS enzyme [8] = type: biochemical
Method: (§5) Methods for the analysis of EPSPS enzyme activity are described in Padgette et al. (J. Biol. Chem. (1988)263:1798-1802 and Arch. Biochem. Biophys. (1987)258:564-573) and Wibbenmeyer et al. (Biochem. Biophys. Res. Commun. (1988)153:760-766).
as §2

EPSPS enzyme [9] = molecular target: T1, EPSPS enzyme (Agrobacterium sp., UniProt Q9R4E4); type: biochemical
T1 construct: from tissue; host or cells: extracts of wild-type and transplastomic tobacco plants
Method: as §5, §2

Nb2 cell line = test: Nb2 cell proliferation bioactivity assay (MTS); type: cell-based; details: pH adjusted and centrifuged extract of pMON38794 tobacco, 48 hrs, MTS (FIG. 5)
Method: Bioactivity of the pH adjusted and centrifuged extract was tested using cells from an Nb2 cell line. These cells proliferate in the presence of growth hormone and other […] type compounds. The assay involves putting various concentrations of growth hormone-containing extract into a 96 well plate. Then a constant amount of cells are added to each well. The plate is incubated for 48 hrs and then a reagent called MTS is added. Metabolizing cells take up the MTS and convert it to a blue colored substance. The more cells there are the more blue color in the well. The blue color is measured using a spectrophotometer. The number of cells should be proportional to the concentration of growth hormone in the media. At some high concentration one expects that the cells will become saturated with growth hormone and that the dose response will level off. At very low hGH concentrations essentially no enhanced growth is seen.

[10] = line pMON10154 (nuclear), glyphosate spray
[11] = line pMON30123, glyphosate spray
[12] = line pMON30130, glyphosate spray
[13] = line pMON38773, glyphosate spray
[14] = line pMON38798, glyphosate spray
[15] = line pMON45201, glyphosate spray
[16] = line 38773-6, glyphosate 50 μM, 8 explants
[17] = line 38773-6, glyphosate 75 μM, 18 explants
[18] = line 38773-6, glyphosate 100 μM, 17 explants
[19] = line 38773-6, glyphosate 150 μM, 18 explants
[20] = line 38773-6, glyphosate 200 μM, 16 explants

T1 sequence (Q9R4E4 whole entry): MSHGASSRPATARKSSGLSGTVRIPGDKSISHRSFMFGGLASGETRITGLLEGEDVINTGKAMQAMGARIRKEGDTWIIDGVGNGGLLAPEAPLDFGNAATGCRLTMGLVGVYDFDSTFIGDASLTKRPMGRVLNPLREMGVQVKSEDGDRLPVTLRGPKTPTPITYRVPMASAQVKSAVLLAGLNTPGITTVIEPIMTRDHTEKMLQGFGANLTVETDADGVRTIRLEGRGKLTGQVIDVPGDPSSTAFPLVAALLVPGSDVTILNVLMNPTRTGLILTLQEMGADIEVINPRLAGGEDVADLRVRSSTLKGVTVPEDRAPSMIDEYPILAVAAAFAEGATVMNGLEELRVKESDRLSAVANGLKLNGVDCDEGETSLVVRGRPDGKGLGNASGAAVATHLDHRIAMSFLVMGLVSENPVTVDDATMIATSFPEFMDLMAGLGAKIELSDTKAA

CNc1cnn(-c2cccc(C(F)(F)F)c2)c(=O)c1Cl [Norflurazon]
Norflurazon resistance ([1]; control plants): susceptible
Result (Norflurazon resistance) ([1]; line 74-1B-P (homoplasmic 5177)): Resistant
Result (Norflurazon resistance) ([1]; line 74-2-A (homoplasmic 5177)): Resistant
Result (Norflurazon resistance) ([1]; line 74-7-C (homoplasmic 5177)): Resistant
Result (Norflurazon resistance) ([1]; line 75-5D-A (Control)): Susceptible
Result (Norflurazon resistance) ([1]; line 2560A Xanthi (Control)): Susceptible
Result (Norflurazon resistance) ([1]; line Xanthi (Control), plants grown seven weeks): Susceptible
Norflurazon resistance ([1]; three homoplasmic 5177 tobacco lines): resistant

O=C(O)CNCP(=O)(O)O [glyphosate, N-phosphonomethylglycine]
Reproductive tolerance (oz/acre) [2, 10]: 64 oz/acre
Vegetative tolerance (oz/acre) [2, 10]: 128 oz/acre
Reproductive tolerance (oz/acre) [2, 11]: 0 oz/acre
Vegetative tolerance (oz/acre) [2, 11]: 0 oz/acre
Reproductive tolerance (oz/acre) [2, 12]: 0 oz/acre
Vegetative tolerance (oz/acre) [2, 12]: 0 oz/acre
Reproductive tolerance (oz/acre) [2, 13]: 16 oz/acre
Vegetative tolerance (oz/acre) [2, 13]: 32 oz/acre
Reproductive tolerance (oz/acre) [2, 14]: 16 oz/acre
Vegetative tolerance (oz/acre) [2, 14]: 32 oz/acre
Reproductive tolerance (oz/acre) [2, 15]: 32 oz/acre
Vegetative tolerance (oz/acre) [2, 15]: 32 oz/acre
glyphosate level tolerated ([2]; subsequent experiments with additional transformed transplastomic lines): 64 oz/acre
% Explant Regeneration ([3]; line 38773-6, glyphosate 50 μM): 100%
Number Regenerating 3 Weeks [3, 16]: 5
Number Regenerating 6 Weeks [3, 16]: 8
% Explant Regeneration ([3]; line 38773-6, glyphosate 75 μM): 100%
Number Regenerating 3 Weeks [3, 17]: 14
Number Regenerating 6 Weeks [3, 17]: 18
% Explant Regeneration ([3]; line 38773-6, glyphosate 100 μM): 88%
Number Regenerating 3 Weeks [3, 18]: 12
Number Regenerating 6 Weeks [3, 18]: 15
% Explant Regeneration ([3]; line 38773-6, glyphosate 150 μM): 89%
Number Regenerating 3 Weeks [3, 19]: 10
Number Regenerating 6 Weeks [3, 19]: 16
% Explant Regeneration ([3]; line 38773-6, glyphosate 200 μM): 86%
Number Regenerating 3 Weeks [3, 20]: 8
Number Regenerating 6 Weeks [3, 20]: 15
glyphosate level tolerated in vitro ([3]; tobacco expressing EPSPS in plastids (pMON38773), shoot regeneration): at least 200 μM
% Explant Regeneration ([4]; glyphosate 50 μM): 0%
Number Regenerating 3 Weeks ([4]; glyphosate 50 μM): 0
Number Regenerating 6 Weeks ([4]; glyphosate 50 μM): 0
% Explant Regeneration ([4]; glyphosate 75 μM): 0%
Number Regenerating 3 Weeks ([4]; glyphosate 75 μM): 0
Number Regenerating 6 Weeks ([4]; glyphosate 75 μM): 0
% Explant Regeneration ([4]; glyphosate 100 μM): 0%
Number Regenerating 3 Weeks ([4]; glyphosate 100 μM): 0
Number Regenerating 6 Weeks ([4]; glyphosate 100 μM): 0
% Explant Regeneration ([4]; glyphosate 150 μM): 0%
Number Regenerating 3 Weeks ([4]; glyphosate 150 μM): 0
Number Regenerating 6 Weeks ([4]; glyphosate 150 μM): 0
% Explant Regeneration ([4]; glyphosate 200 μM): 0%
Number Regenerating 3 Weeks ([4]; glyphosate 200 μM): 0
Number Regenerating 6 Weeks ([4]; glyphosate 200 μM): 0
glyphosate selection level tolerated by generated tobacco lines ([5]; in vitro selection, Table 5 lines): 1 mM
No. of shoots Gly 50 uM(+) ([5]; pMON38766 (T7), 6 Spec/strep (+) shoots): 0
No. of shoots Gly 50 uM(+) ([5]; pMON38766 (Wild), 1 Spec/strep (+) shoot): 0
No. of shoots Gly 50 uM(+) ([5]; pMON38773 (Wild), 9 Spec/strep (+) shoots): 5
No. of shoots positive at 1 mM glyphosate ([5]; pMON38773 (Wild), number in parentheses): 1
No. of shoots Gly 50 uM(+) ([5]; pMON38793, 8 Spec/strep (+) shoots): 0
No. of shoots Gly 50 uM(+) ([5]; pMON38796, 4 Spec/strep (+) shoots): 0
No. of shoots Gly 50 uM(+) ([5]; pMON38797 (Wild), 2 Spec/strep (+) shoots): 0
No. of shoots Gly 50 uM(+) ([5]; pMON38798, 6 Spec/strep (+) shoots): 6
No. of shoots Gly 50 uM(+) ([5]; pMON45201, 9 Spec/strep (+) shoots): 3
glyphosate concentration tolerated (vegetative tissue injury) ([6]; initial results, homoplasmic tobacco lines sprayed): 16 oz/acre
glyphosate rate with a good level of tolerance ([6]; transplastomic lines, spray): 32 oz/acre
Reproductive tolerance (oz/acre) ([7]; Wild-type, glyphosate spray): 0 oz/acre
Vegetative tolerance (oz/acre) ([7]; Wild-type, glyphosate spray): 0 oz/acre
susceptibility to sprayed glyphosate ([7]; nontransformed control plants, glyphosate concentrations as low as 16 oz/acre): highly susceptible
SPECIFIC ACTIVITY (nmol/min/mg) +1 mM gly (EPSPS enzyme [8]; Wild-type plant extract, No gly: 3.4): 0 nmol/min/mg
SPECIFIC ACTIVITY (nmol/min/mg) +1 mM gly (EPSPS enzyme [8]; line pMON30123 extract, No gly: 4.0): 0 nmol/min/mg
SPECIFIC ACTIVITY (nmol/min/mg) +1 mM gly (EPSPS enzyme [8]; line pMON30130 extract, No gly: 6.2): 0 nmol/min/mg
SPECIFIC ACTIVITY (nmol/min/mg) +1 mM gly (EPSPS enzyme [8]; line pMON38798 extract, No gly: 17.2): 14.7 nmol/min/mg
SPECIFIC ACTIVITY (nmol/min/mg) +1 mM gly (EPSPS enzyme [8]; line pMON45204 extract, No gly: 339.9): 371.8 nmol/min/mg
SPECIFIC ACTIVITY (nmol/min/mg) +1 mM gly (EPSPS enzyme [9]; line pMON10154 (nuclear CP4 control) extract, No gly: 19.0): 18.4 nmol/min/mg
SPECIFIC ACTIVITY (nmol/min/mg) +1 mM gly (EPSPS enzyme [9]; line pMON38773 extract, No gly: 16.7): 6.7 nmol/min/mg

hGH: Human Growth Hormone expressed from tobacco plastids (pMON38794), tested as pH adjusted and centrifuged leaf extract
bioactivity: absorbance vs hGH concentration (Nb2 cell line): sigmoidal shape
